According to article PMC10384862, “[^212Pb]Pb-eSOMA-01: A Promising Radioligand for Targeted Alpha Therapy of Neuroendocrine Tumors” (Pharmaceuticals, 2023):
Read-outs that look alike come from different tables or passages of the source.

Tests used:
[1] = In vitro stability in PBS; assay type: physicochemical; conditions: ^212Pb-labeled, 37 °C, n = 1
Protocol: The ^203Pb-labeled compounds (~ 2 MBq) or the ^212Pb-labeled compounds (~ 70 kBq) were incubated in 300 µL of phosphate buffered saline (PBS; 0.1 M, pH 7.4) or mouse serum at 37 °C. The stability of the radiolabeled peptides was monitored at 1, 4, and 24 h post-incubation. The samples in PBS were directly analyzed by radio-HPLC without any pretreatment. However, samples of mouse serum were mixed with an equal volume of acetonitrile to precipitate the proteins. The solution was centrifuged twice for 5 min at 13,000 rpm, and the supernatant was analyzed by radio-HPLC using Method 1 for lead-203 and Method 2 for lead-212.

[2] = Biodistribution study with lead-212; assay type: in vivo, mouse; conditions: mouse, intravenous; for tissue uptake at 1 h: 1 h p.i.; for tissue uptake at 4 h: 4 h p.i.
Protocol: (§1) Six-week-old male Balb/c nu/nu-specific and opportunistic pathogen-tree (SOPF) mice (Janvier Labs, Le Genest-Saint-Isle, France) were housed in individually ventilated cages, with four mice per cage. Upon arrival, the mice were acclimated for 1 week with access to food and water ad libitum. Mice were subcutaneously inoculated on the right shoulder with NCI-H69 cells (5 × 10^6 cells suspended in 100 μL of 1/3 Matrigel (Corning Inc.; Corning, NY, USA) and 2/3 Hank’s balanced salt solution (Gibco; Paisley, UK). NCI-H69 xenografts were allowed to grow for 3 weeks. Tumor sizes were 391 ± 173 mm^3 at the start of the studies.
(§2) Biodistribution studies were performed to determine tumor and organ uptake of [^212Pb]Pb-DOTAM-TATE, [^212Pb]Pb-eSOMA-01, and [^212Pb]Pb-eSOMA-02. Animals (n = 4 for each time point) were injected intravenously (i.v.) with an average of 100 kBq/0.5 nmol. At 3 selected time points (1, 4, and 24 h) p.i., blood was collected via retro-orbital puncture under isoflurane/O2 anesthesia, after which the mice were sacrificed via cervical dislocation. The tumor and organs of interest (heart, lungs, liver, spleen, stomach, large intestine, small intestine, pancreas, kidneys, muscle, skin, and bone) were excised, washed in PBS, and blotted dry. To confirm receptor specificity of radioligand uptake, mice (n = 3) were co-injected with an excess (25 nmol) of the respective unlabeled peptide, and uptake in the organs of interest was determined at 24 h p.i. To determine the total injected radioactivity per animal, a calibration curve with lead-212 was established using the gamma counter. The percentage of injected dose per gram (% ID/g) was determined for each tissue sample and corrected for both the injected volume and the % ID present at the injection site (the tail).

[3] = test system: H69-xenograft Balb/c nu/nu mice; assay: Biodistribution study with lead-212; assay type: in vivo, mouse; conditions: for Stomach uptake: 1 h p.i.
Protocol: as §1, §2

CD-1 mice = conditions: cited from earlier work; for Pancreas uptake: CD-1 mice
kidney uptake = conditions: in vivo; cited from earlier work
[4] = test system: H69-tumor xenograft and organs; assay: Dosimetry (absorbed dose from 212Pb biodistribution, RADAR mouse phantom); assay type: in vivo; conditions: based on MTD to the kidneys of 18–23 Gy
Protocol: Single exponential curves were fitted through the organ biodistribution time-activity data using Graphpad Prism. […] The absorbed doses were calculated with the MIRD equation D=∑sms×[TIACs]×S(t←s) , with ms being the source organ mass. A relative biological effect (RBE) of 5 was assumed for the alpha-radiation [47]. The uncertainty propagation in the dosimetry result was calculated [48].

[5] = blood, 100 kBq, n = 4, read-out: Blood uptake
[6] = bone, 100 kBq, n = 4, read-out: Bones uptake
[7] = heart, 100 kBq, n = 4, read-out: Heart uptake
[8] = intestines, 100 kBq, n = 4, read-out: Intestines uptake
[9] = intestines, 100 kBq, 24 h p.i., n = 4, read-out: Intestines uptake
[10] = kidneys, 100 kBq, n = 4, read-out: Kidneys uptake
[11] = kidneys, 100 kBq, 24 h p.i., n = 4, read-out: Kidneys uptake
[12] = kidneys, 24 h block: co-injection of excess (25 nmol) unlabeled peptide, read-out: Kidneys uptake
[13] = liver, 100 kBq, n = 4, read-out: Liver uptake
[14] = liver, 100 kBq, 24 h p.i., n = 4, read-out: Liver uptake
[15] = liver, 24 h block: co-injection of excess (25 nmol) unlabeled peptide, read-out: Liver uptake
[16] = lungs, 100 kBq, n = 4, read-out: Lungs uptake
[17] = lungs, 100 kBq, 24 h p.i., n = 4, read-out: Lungs uptake
[18] = pancreas, 100 kBq, n = 4, read-out: Pancreas uptake
[19] = skin, 100 kBq, n = 4, read-out: Skin uptake
[20] = spleen, 100 kBq, n = 4, read-out: Spleen uptake
[21] = stomach, 100 kBq, n = 4, read-out: Stomach uptake
[22] = stomach, 100 kBq, 24 h p.i., n = 4, read-out: Stomach uptake
[23] = stomach, 24 h block: co-injection of excess (25 nmol) unlabeled peptide, read-out: Stomach uptake
[24] = tumor, 100 kBq, n = 4, read-out: Tumor uptake
[25] = tumor, 100 kBq, 24 h p.i., n = 4, read-out: Tumor uptake

Q: What does the source list for C[C@@H](O)[C@H](NC(=O)[C@@H]1CSSC[C@H](NC(=O)[C@@H](Cc2ccccc2)NC(=O)CN2CCN(CC(N)=O)CCN(CC(N)=O)CCN(CC(N)=O)CC2)C(=O)N[C@@H](Cc2ccc(O)cc2)C(=O)N[C@H](Cc2c[nH]c3ccccc23)C(=O)N[C@@H](CCCCN)C(=O)N[C@@H]([C@@H](C)O)C(=O)N1)C(=O)O [[^212Pb]Pb-DOTAM-TATE, metal not drawn, reference compound]?
A: Stability in PBS, intact labeled ligand ([1]; 1 h): 99%; Stability in PBS, intact labeled ligand ([1]; 4 h): 98%; Stability in PBS, intact labeled ligand ([1]; 24 h): 95%; tissue uptake at 1 h [2, 5]: 1.34 ± 0.53 %ID/g; tissue uptake at 4 h [2, 5]: 0.02 ± 0.03 %ID/g; tissue uptake at 1 h [2, 6]: 0.69 ± 0.02 %ID/g; tissue uptake at 1 h [2, 7]: 0.61 ± 0.34 %ID/g; tissue uptake at 1 h [2, 8]: 2.03 ± 0.63 %ID/g; tissue uptake at 4 h [2, 8]: 0.68 ± 0.08 %ID/g; tissue uptake at 24 h [2, 9]: 0.22 ± 0.04 %ID/g; tissue uptake at 1 h [2, 10]: 53.5 ± 4.18 %ID/g; tissue uptake at 4 h [2, 10]: 49.4 ± 2.92 %ID/g; tissue uptake at 24 h [2, 11]: 29.2 ± 5.11 %ID/g; tissue uptake at 24 h [2, 12]: 25.8 ± 9.18 %ID/g; tissue uptake at 1 h [2, 13]: 2.69 ± 0.18 %ID/g; tissue uptake at 4 h [2, 13]: 2.26 ± 0.3 %ID/g; tissue uptake at 24 h [2, 14]: 1.42 ± 0.17 %ID/g; tissue uptake at 24 h [2, 15]: 0.25 ± 0.46 %ID/g; tissue uptake at 1 h [2, 16]: 2.75 ± 0.52 %ID/g; tissue uptake at 4 h [2, 16]: 0.82 ± 0.36 %ID/g; tissue uptake at 24 h [2, 17]: 0.33 ± 0.11 %ID/g; tissue uptake at 1 h [2, 18]: 5.19 ± 0.84 %ID/g; tissue uptake at 4 h [2, 18]: 1.14 ± 0.13 %ID/g; tissue uptake at 24 h ([2]; pancreas, 100 kBq, 24 h p.i., n = 4, read-out: Pancreas uptake): 0.28 ± 0.06 %ID/g; tissue uptake at 1 h [2, 19]: 1 ± 0.38 %ID/g; tissue uptake at 4 h [2, 19]: 0.59 ± 0.21 %ID/g; tissue uptake at 1 h [2, 20]: 0.55 ± 0.21 %ID/g; tissue uptake at 4 h [2, 20]: 0.22 ± 0.06 %ID/g; tissue uptake at 1 h [2, 21]: 2.69 ± 0.53 %ID/g; tissue uptake at 4 h [2, 21]: 1.62 ± 0.5 %ID/g; tissue uptake at 24 h [2, 22]: 0.61 ± 0.18 %ID/g; tissue uptake at 24 h [2, 23]: 0.25 ± 0.28 %ID/g; tissue uptake at 1 h [2, 24]: 9.57 ± 3.05 %ID/g; tissue uptake at 4 h [2, 24]: 8.04 ± 3.26 %ID/g; tissue uptake at 24 h [2, 25]: 6.07 ± 1.28 %ID/g; tissue uptake ([2]; tumor, 100 kBq, time point not stated): 8 to 9 %ID/g; Stomach uptake ([3]; n = 4): 2.7 % ID/g; Tumor uptake ([3]; 4 h p.i., n = 4): ~ 9 % ID/g; Kidneys uptake ([3]; 24 h p.i., n = 4): 29 ± 6 % ID/g; Tumor uptake ([3]; 24 h p.i., n = 4): ~ 6 % ID/g; Pancreas uptake (CD-1 mice; 1 h, ref Tworowska et al.): 32 % ID/g; Kidney uptake (CD-1 mice; 1 h, ref Tworowska et al.): 21 % ID/g; Pancreas uptake (CD-1 mice; 4 h, ref Tworowska et al.): 15 % ID/g; Kidney uptake (CD-1 mice; 24 h, ref Tworowska et al.): 10 % ID/g; MTD (maximum tolerated absorbed dose) to the kidneys (CD-1 mice; mice): 18–23 Gy; Tumor uptake (CD-1 mice; ref Tworowska et al.): ~ 20 % ID/g; Reduction in kidney uptake (kidney uptake): 3 fold

Q: What does the source list for C[C@@H](O)[C@H](NC(=O)[C@@H]1CSSC[C@H](NC(=O)[C@@H](Cc2ccccc2)NC(=O)[C@H]2CC[C@H](CNC(=O)CN3CCN(CC(N)=O)CCN(CC(N)=O)CCN(CC(N)=O)CC3)CC2)C(=O)N[C@@H](Cc2ccc(O)cc2)C(=O)N[C@H](Cc2c[nH]c3ccccc23)C(=O)N[C@@H](CCCCN)C(=O)N[C@@H]([C@@H](C)O)C(=O)N1)C(=O)O [[^212Pb]Pb-eSOMA-01, metal not drawn]?
A: Stability in PBS, intact labeled ligand ([1]; 1 h): 99%; Stability in PBS, intact labeled ligand ([1]; 4 h): 97%; Stability in PBS, intact labeled ligand ([1]; 24 h): 94%; tissue uptake at 1 h [2, 5]: 1.8 ± 0.37 %ID/g; tissue uptake at 1 h [2, 6]: 1.75 ± 0.44 %ID/g; tissue uptake at 4 h [2, 6]: 0.14 ± 0.09 %ID/g; tissue uptake at 1 h [2, 7]: 0.71 ± 0.33 %ID/g; tissue uptake at 1 h [2, 8]: 2.12 ± 0.39 %ID/g; tissue uptake at 4 h [2, 8]: 0.97 ± 0.12 %ID/g; tissue uptake at 24 h [2, 9]: 0.23 ± 0.02 %ID/g; tissue uptake at 24 h ([2]; intestines, 24 h block: co-injection of excess (25 nmol) unlabeled peptide, read-out: Intestines uptake): 0.06 ± 0.04 %ID/g; tissue uptake at 1 h [2, 10]: 78.8 ± 12.1 %ID/g; tissue uptake at 4 h [2, 10]: 39.6 ± 4.95 %ID/g; tissue uptake at 24 h [2, 11]: 22 ± 4.06 %ID/g; tissue uptake at 24 h [2, 12]: 17.8 ± 3.85 %ID/g; tissue uptake at 1 h [2, 13]: 4.72 ± 0.53 %ID/g; tissue uptake at 4 h [2, 13]: 2.73 ± 0.49 %ID/g; tissue uptake at 24 h [2, 14]: 1.7 ± 0.31 %ID/g; tissue uptake at 24 h [2, 15]: 1.07 ± 0.14 %ID/g; tissue uptake at 1 h [2, 16]: 4.05 ± 0.69 %ID/g; tissue uptake at 4 h [2, 16]: 1.38 ± 0.54 %ID/g; tissue uptake at 24 h [2, 17]: 0.44 ± 0.2 %ID/g; tissue uptake at 1 h ([2]; muscle, 100 kBq, n = 4, read-out: Muscle uptake): 0.22 ± 0.51 %ID/g; tissue uptake at 1 h [2, 18]: 7.86 ± 0.43 %ID/g; tissue uptake at 4 h [2, 18]: 1.72 ± 0.16 %ID/g; tissue uptake at 1 h [2, 19]: 2.23 ± 0.26 %ID/g; tissue uptake at 4 h [2, 19]: 0.17 ± 0.74 %ID/g; tissue uptake at 1 h [2, 20]: 0.98 ± 0.28 %ID/g; tissue uptake at 4 h [2, 20]: 0.23 ± 0.12 %ID/g; tissue uptake at 1 h [2, 21]: 7.08 ± 0.28 %ID/g; tissue uptake at 4 h [2, 21]: 2.51 ± 1.51 %ID/g; tissue uptake at 24 h [2, 22]: 0.87 ± 0.53 %ID/g; tissue uptake at 24 h [2, 23]: 0.05 ± 0.01 %ID/g; tissue uptake at 1 h [2, 24]: 16.1 ± 2.31 %ID/g; tissue uptake at 4 h [2, 24]: 10.9 ± 3.81 %ID/g; tissue uptake at 24 h [2, 25]: 6.83 ± 1.28 %ID/g; More tumor uptake than [212Pb]Pb-eSOMA-02 ([3]; 1 h and 24 h, p < 0.05): 61%; Stomach uptake ([3]; n = 4): 7.1 % ID/g; Tumor uptake ([3]; 4 h p.i., n = 4): ~ 9 % ID/g; Tumor uptake ([3]; 24 h p.i., n = 4): ~ 6 % ID/g; Maximum dose injected into mice [4]: around 0.2 MBq
